Experimental data from patent US20230404989A1, “GRK2 INHIBITION BY PAROXETINE AMELIORATES OSTEOARTHRITIS” (THE PENN STATE RESEARCH FOUNDATION, priority 2020, published 2023).
Entries after “also recorded” stand apart in the source; their conditions may differ.

Key:
DMM mice = assay: DMM drug treatment study: OARSI scoring and histomorphometry of knee cartilage; format: in vivo, mouse; details: for cartilage degeneration (Safranin-O and Fast Green histology) / chondro-protective and matrix-regenerative effects (overall) / total number of chondrocytes / uncalcified cartilage area: daily ip week 8 to 12; for OARSI score / number of matrix producing chondrocytes: daily ip week 8 to 12, versus vehicle
Procedure: Drug treatment studies: In twelve-week old male wild type C57BL/6 mice that received DMM surgeries, vehicle (PBS), paroxetine (5 mg/kg/day), fluoxetine (5 mg/kg/day), gallein (10 mg/kg/day) or indomethacin (2.5 mg/kg/day) were administered daily by ip injection. Drug treatment was initiated 8 weeks following DMM to determine the role of GRK2 signaling in the progression of OA.
Twelve-week-old male mice were administered DMM surgery to the right knee and sham surgery to the left knee as described (S. S. Glasson, Osteoarthritis. Cartilage. 15, 1061-1069 (2007)). Briefly, mice were anesthetized via intraperitoneal injection of ketamine (60 mg/kg) and xylazine (4 mg/kg), and a 5-mm-long incision was made on the medial side of the knee. Under a dissecting microscope, an incision was made along the medial side of the patellar tendon, opening the joint space. Using a #11 scalpel, the medial meniscotibial ligament (MMTL) was transected, enabling the medial meniscus to move freely. A similar skin incision was made in sham knees, but the joint structure was not disturbed. For the sham group, both right and left knees had sham surgeries. After surgery, 4-0 silk sutures were used to close the incision using an interrupted pattern. Mice were provided analgesia via intraperitoneal injection of buprenorphine (0.5 mg/kg) every 12 hours for 72 hours, and sutures were removed after 7 days. Mice were sacrificed, at the indicated time points, by anesthesia followed with whole animal perfusion using 10% NBF, knees were harvested and fixed for 7 days in 10% NBF, decalcified for 7 days in 10% w/v EDTA, embedded in paraffin, and 10-μm sections were cut and mounted for Safranin-O/Fast Green or IF staining.
Semi-quantitative histopathologic grading was performed using a derivative of the Chambers' scoring system that has been established by the OARSI histopathology initiative as the standard method for grading of mouse cartilage degeneration. Based on this system, cartilage grading was carried out using Safranin-O/Fast Green-stained midsagittal sections. Three sections from representative levels (50 μm apart) of the medial compartment of the joint were selected for each sample and, which were evaluated in a randomized, blinded manner by 3 laboratory members. The 3 scores were averaged to calculate the section score, and the sample score was then calculated by averaging the scores obtained from the three levels. Grading was performed using the following scale: 0=normal cartilage, 0.5=loss of proteoglycan stain without cartilage damage, 1=mild superficial fibrillation, 2=fibrillation and/or clefting extending below the superficial zone, 3=mild (<25%) loss of cartilage, 4=moderate (25-50%) loss of cartilage, 5=severe (50-75%) loss of uncalcified cartilage, and 6=eburnation with >75% loss of cartilage. Grading was performed by three blinded observers (F.K., M.J.Z., and E.R.S.). Observer agreement was evaluated in pairs via calculation of a weighted kappa coefficient, using Fleiss-Cohen weights, as we have described. The F.K. versus M.J.Z. coefficient was 0.92, the F.K. versus E.R.S. coefficient was 0.94, and the M.J.Z. versus E.R.S coefficient was 0.89, all indicative of strong agreement between the observers.
Using Safranin-O/Fast Green-stained sections, the OsteoMetrics system was used to quantify the above parameters on three sections from representative levels (50 μm apart) of the medial compartment of the joint for each sample. Live images of the center of the knee joint were collected through an Olympus microscope (10× objective) outfitted with a camera, a stylus was used to trace the regions of interest (ROIs). A blinded observer quantified uncalcified articular cartilage area, total chondrocyte number and matrix-producing chondrocyte number using the built-in area calculation algorithms and quantification functions of the OsteoMeasure® system. […]

human OA cartilage = assay: Ex vivo cultured human OA osteochondral plugs: cAMP assay; format: cell-based; details: paroxetine 5 μM or gallein 10 μM, 48 hrs, versus vehicle
Description: An Institutional Review Board-approved protocol was executed to collect discarded de-identified cartilage from patients. For the experiment described in FIG. 3A, we obtained acutely injured human cartilage (from patients undergoing arthroscopic surgery 4 weeks following meniscal injury, N=6) and OA cartilage (from patients undergoing arthroplasty, N=6). Normal controls were obtained from amputees' knees (N=6). Cartilage was fixed in formalin then processed and embedded in paraffin, 5-μm sections were used for immunofluorescence (IF) staining. For the experiment described in FIG. 7, OA osteochondral tissue was collected from patients undergoing total knee arthroplasty. Osteochondral plugs (8-mm diameter) were obtained and bone was flushed with saline solution to remove all bone marrow and blood cells. […] Gas activity was measured by quantifying cAMP content in cartilage pooled from 3 mice. […] Frozen cartilage was pulverized using 500 μL lysis buffer as we have previously described (H. K. Le Bleu, Anal Biochem, 518, 134-138 (2017)). cAMP content was quantified using the Cyclic AMP XP Assay kit (Cell Signaling, #4339) and following manufacturer's protocol, with 0.5 mM IBMX added to the lysis buffer to prevent phosphodiesterase mediated cAMP degradation during the extraction process. cAMP levels in different groups were normalized to that of sham mice or the vehicle treated human cartilage.

SMILES	cartilage degeneration (Safranin-O and Fast Green histology) (DMM mice)	chondro-protective and matrix-regenerative effects (overall) (DMM mice)	total number of chondrocytes (DMM mice)	uncalcified cartilage area (DMM mice)	OARSI score (DMM mice)	number of matrix producing chondrocytes (DMM mice)	cAMP production (human OA cartilage)
O=C1OC2(c3ccccc31)c1ccc(O)c(O)c1Oc1c2ccc(O)c1O [gallein]	reduced	exert both a chondro-protective and a matrix-regenerative effects; also recorded: equivalent to that of paroxetine	preserved	preserved	lower	higher number	significant increase
Fc1ccc([C@@H]2CCNC[C@H]2COc2ccc3c(c2)OCO3)cc1 [paroxetine]	reduced	exert both a chondro-protective and a matrix-regenerative effects	preserved	preserved	lower	higher number	significant increase
